Assay [1] has as its system T1, TPC2^K204A in HEK293 cells.
T1 construct: expressed in transfected cells; host or cells: HEK293
The assay can be described thus: Whole-cell recordings of ITPC2-K204A. In kind it is cell-based, human. The settings on record: TPC2^K204A-transfected HEK293 cells.

For assay [2], the system named is T2, TPC2 I551R.
T2 construct: expressed in transfected cells
The assay can be described thus: Whole-endolysosome recordings of ITPC2-I551R. In kind it is biochemical, human.

In assay [3] the target is T3, PI(3,5)P2-insensitive mutant TPC2 channel (K204A) (Homo sapiens, UniProt Q8NHX9, K204A).
T3 construct: expressed in transfected cells; host or cells: HEK293
The assay can be described thus: Whole-endolysosome recordings of ITPC2-K204A. The settings on record: for Normalized I-TPC2: TPC2-K204A. In kind it is biochemical. An excerpt: PI(3,5)P2 reportedly binds to Lys204 and adjacent AA residues to activate TPC2 ([She et al., 2019]). […] Lysosomal PI(3,5)P2 may play a permissive role in TPC activation in intact cells ([Ruas et al., 2015]).
(§1) Data are presented as Mean ± S.E.M (n = 3 patches). […] For panels B, D and F, individual data and Mean ± S.E.M are presented. *, p<0.05; **, p<0.01; ***, p<0.001; N.S., no significance. Figure 3—source data 1. […] Figure 3—figure supplement 1. […] Both individual data points and Mean ± S.E.M are presented (n ≥ 3 patches; also see individual data in Figure 3—figure supplement 1—source data 1). Figure 3—figure supplement 1—source data 1.
All TPC1 and TPC2 mutants were generated with a site-directed mutagenesis kit (Qiagen) using EGFP- human TPC1 and TPC2 as the templates. All constructs were confirmed by DNA sequencing.
(§2) Whole-endolysosome recordings were performed on manually isolated enlarged endolysosomes ([Wang et al., 2012]). In brief, a patch pipette was pressed against a cell and quickly pulled away to slice the cell membrane. Enlarged endolysosomes were released into a dish and identified by monitoring EGFP-TPC1/2 or the mCherry-TPC1/2 fluorescence. After formation of a gigaseal between the patch pipette and the enlarged endolysosome, capacitance transients were compensated. Voltage steps of several hundred mVs with millisecond duration were then applied to break into the vacuolar membrane. The whole-endolysosome configuration was verified by the re-appearance of capacitance transients after break-in.
(§3) Data were collected using an Axopatch 200A patch clamp amplifier, Digidata 1440, and pClamp 10.2 software (Axon Instruments). Whole-endolysosome currents were digitized at 10 kHz and filtered at 2 kHz. All experiments were conducted at room temperature (21–23°C), and all recordings were analyzed with pClamp 10.2, and Origin 8.0 (OriginLab, Northampton, MA). The permeability to cations (relative to PNa) was estimated based on following equations ([Lewis, 1979]) and Erev measurement under bi-ionic conditions:(1) PX/PNa=γNa/γX{[Na^+]Luminal/[X^+]Cytoplasmic}{exp([…])} (2) PCa/PNa=γNa/γCa{[Na^+]Cytoplasmic/[4[Ca^2+]Luminal}{exp(ErevF/RT)}{1+exp(ErevF/RT)} where R, T, F, Erev, and γ are, respectively, the gas constant, absolute temperature, Faraday constant, reversal potential, and activity coefficient. The liquid junction potentials were measured and corrected as described ([Neher, 1992]).

The test system of assay [4] is endogenous TPCs in WT HAP1 cells. The assay can be described thus: Whole-endolysosome recordings of endogenous ITPC in WT HAP1 cells. In kind it is biochemical, human. The note with it: for whole-endolysome ITPC current: wt HAP1, LyNa-VA1.1 (50 µM) co-applied with PI(3,5)P2 (0.3 µM).
Assay [5] deals with TPC1/2 DKO HAP1 cells. The assay is described as follows: Whole-endolysosome recordings in TPC1/2 DKO HAP1 cells. The assay is classed as biochemical, human. The note with it: for whole-endolysome ITPC current: dko HAP1, LyNa-VA1.1 (50 µM) co-applied with PI(3,5)P2 (0.3 µM).
Source text: TCAs, with a general structure of an aromatic greasy core and an aliphatic chain containing a terminal amine, are lysosomotropic compounds that are known to be highly accumulating in the lysosomes due to proton trapping ([Beckmann et al., 2014]). We next tested the effects of LyNa-VAs in hTPC2-transfected Cos1 and HEK293 cells using whole-endolyosome patch-clamp.
as §1
TPC1 and TPC2 CRISPR KO cells were generated in HAP1 cells using the CRISPR/Cas9 system. The TPC1 sequence (5'cttgcagtacttcagcaccc3', TPC1-sgRNA) and TPC2 sequence (5'ccccagcgtcgggctgctgc3', TPC2-sgRNA) were targeted with pSpCas9 (BB)−2A-puro vector (Addgene). HAP1 cells were co-transfected with TPC1 and TPC2-sgRNA expressing vector in the presence of Lipofectamine 2000 (In vitrogen) and selected with 2 μg/ml puromycin for 48 hr. The remaining cells were trypsinized and seeded into 96-well plate after a limiting dilution. When single cell clones were established, their genomic DNAs were extracted and amplified with following primers: TPC1-fw: 5’atggcccagacatgtgactc3’, TPC1-re: 5’ tgcctgtctccatcctctca3’; TPC2-fw: 5’tgagctgagcatgaggcaag3’, TPC2-re: 5’ aaaggacaagtggccctgag3’. The PCR amplicons were then sequenced to confirm the intended genetic disruption.
as §2
as §3, with “coefficient.” for “coefficient. The liquid junction potentials were measured and corrected as described ([Neher, 1992]).”

Assay [6] relates to T4, hTPC1^R540I.
T4 construct: expressed in transfected cells; host or cells: Cos1
The assay is described as follows: Whole-endolysosome recordings of ITPC1-R540I. The assay is classed as biochemical, human.

Assay [7] relates to surface-expressing mutant TRPML1 channels (TRPML1^4A). The assay can be described thus: Whole-cell recordings of ITRPML1-4A. The assay is classed as cell-based. The note with it: TRPML1-4A wc; 100µM; individual cells.

Values joined by “and” are separate entries in the source; they are usually repeats but may differ in a detail not shown here. Equal values may be shown once. “Also recorded” adds a separate entry of the source.

T3 sequence (Q8NHX9 whole entry K204A): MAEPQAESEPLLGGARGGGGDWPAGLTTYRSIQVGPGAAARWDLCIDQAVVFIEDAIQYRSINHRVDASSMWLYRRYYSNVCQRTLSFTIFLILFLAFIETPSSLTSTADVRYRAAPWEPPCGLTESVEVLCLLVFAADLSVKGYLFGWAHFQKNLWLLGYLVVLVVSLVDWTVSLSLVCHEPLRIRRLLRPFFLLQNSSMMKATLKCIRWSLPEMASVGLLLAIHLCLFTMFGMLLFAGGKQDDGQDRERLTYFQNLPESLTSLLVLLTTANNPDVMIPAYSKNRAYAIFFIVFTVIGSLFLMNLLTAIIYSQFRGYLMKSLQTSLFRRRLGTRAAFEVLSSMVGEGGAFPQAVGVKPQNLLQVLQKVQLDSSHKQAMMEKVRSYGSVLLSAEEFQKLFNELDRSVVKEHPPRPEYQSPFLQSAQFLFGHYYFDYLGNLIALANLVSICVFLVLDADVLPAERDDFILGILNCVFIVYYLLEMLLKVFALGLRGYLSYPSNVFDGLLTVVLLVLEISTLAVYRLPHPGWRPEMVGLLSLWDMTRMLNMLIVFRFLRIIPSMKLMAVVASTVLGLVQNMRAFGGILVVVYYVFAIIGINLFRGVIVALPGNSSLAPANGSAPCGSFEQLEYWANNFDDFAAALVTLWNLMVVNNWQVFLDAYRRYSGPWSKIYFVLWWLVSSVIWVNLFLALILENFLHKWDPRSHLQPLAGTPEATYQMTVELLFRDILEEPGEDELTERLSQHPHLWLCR

With `CNCCCN1c2ccccc2CCc2ccccc21` [LyNa-VA1.2, Desipramine], in assay [1], the “activation of whole-cell ITPC2-K204A (in words)” value is given as “activated”. The “activation of ITPC2-I551R (in words)” value in assay [2] is “failed to affect LyNa-VA1.2 activation”.

For `Nc1nc2ccc(OC(F)(F)F)cc2s1` [LyNA1, Riluzole], in assay [3], the “activation of whole-endolysosome ITPC2-K204A (in words)” value is listed as “robustly activated whole-endolysosome ITPC2”. Further, the “activation of whole-endolysosome ITPC in WT HAP1 cells (in words)” value in assay [4] was “activated whole-endolysosome ITPC in WT HAP1 cells”. In addition, the “activation of whole-cell ITPC2-K204A (in words)” value in assay [1] was “activated”. Also, in assay [5], the “activation of whole-endolysosome ITPC in TPC1/2 DKO HAP1 cells (in words)” value is on record as “not HAP1 cells lacking TPC1 or TPC2; also recorded: not TPC1/2 double KO HAP1 cells”.

In the case of `CN(C)CCCN1c2ccccc2CCc2ccc(Cl)cc21` [LyNa-VA1.1, Clomipramine], the 50% effective concentration (EC50) is 47 ± 5 µM in assay [3] (K204A +PI(3,5)P2 (50 nM), whole-endolysosome, Figure 3C); 56 ± 3 µM in assay [3] (K204A -PI(3,5)P2, whole-endolysosome, Figure 3C); 59.7 µM in assay [3] (K204A -pip2, MEAN (Fig. 3D)); 56.4 µM and 68.2 µM and 54.5 µM in assay [3] (K204A -pip2, individual patches (Fig. 3D)); 48.7 µM in assay [3] (K204A+pip2 (50 nM), MEAN (Fig. 3D)); 45.5 µM and 56.2 µM and 44.4 µM in assay [3] (K204A+pip2 (50 nM), individual patches (Fig. 3D)). For the same molecule, the “Normalized I-TPC2” value was 0.01018 and 0.1053 and 0.1347 in assay [3] (1 µM + PI(3,5)P2 50nM, individual patches); 0.08342 in assay [3] (1 µM + PI(3,5)P2 50nM, mean); -0.08987 and 0.1073 and 0.2183 in assay [3] (3 µM + PI(3,5)P2 50nM, individual patches); 0.07858 in assay [3] (3 µM + PI(3,5)P2 50nM, mean); -0.1017 and 0.1767 and 0.2594 in assay [3] (10 µM + PI(3,5)P2 50nM, individual patches); 0.1115 in assay [3] (10 µM + PI(3,5)P2 50nM, mean). For the same molecule, the “Normalized I-TPC2” value in assay [3] (10 µM, no PI(3,5)P2, individual patches) was 0.02985 and 0.03877 and 0.00366; in assay [3] (10 µM, no PI(3,5)P2, mean), 0.02409; in assay [3] (20 µM, no PI(3,5)P2, individual patches), 0.03731 and 0.1741 and 0.01903; in assay [3] (20 µM, no PI(3,5)P2, mean) it was 0.07682; in assay [3] (30 µM + PI(3,5)P2 50nM, individual patches), 0.119 and 0.2972 and 0.3327; in assay [3] (30 µM + PI(3,5)P2 50nM, mean), 0.2496. Besides, the “Normalized I-TPC2” value in assay [3] (50 µM, no PI(3,5)P2, individual patches) was 0.2736 and 0.4263 and 0.3898; in assay [3] (50 µM, no PI(3,5)P2, mean) it was 0.3632; in assay [3] (100 µM + PI(3,5)P2 50nM, individual patches), 0.8468 and 1 (2×); in assay [3] (100 µM + PI(3,5)P2 50nM, mean), 0.9489; in assay [3] (100 µM, no PI(3,5)P2, individual patches), 0.8657 and 1 and 0.7921; in assay [3] (100 µM, no PI(3,5)P2, mean), 0.8859. The “Normalized I-TPC2” value was 1 and 0.5762 and 0.9144 in assay [3] (200 µM + PI(3,5)P2 50nM, individual patches); 0.8302 in assay [3] (200 µM + PI(3,5)P2 50nM, mean); 1 (2×) and 0.8492 in assay [3] (200 µM, no PI(3,5)P2, individual patches); 0.9497 in assay [3] (200 µM, no PI(3,5)P2, mean). In assay [4], the “activation of whole-endolysosome ITPC in WT HAP1 cells (in words)” value is listed as “activated whole-endolysome ITPC in WT”. Moreover, the “whole-endolysome ITPC current” value in assay [4] (individual) was 252.1 pA and 207.1 pA and 321.7 pA and 271.3 pA; in assay [4] (mean), 263.05 pA; in assay [5] (individual), 15.3 pA and 12.5 pA and 24.7 pA and 10.4 pA; in assay [5] (mean), 15.725 pA. Further, in assay [6], the “effect on ITPC1-R540I (in words)” value was “dramatic enhancement of inward currents at negative potentials”. Also, the “current, whole-cell ITRPML1-4A” value in assay [7] is 28.1 pA and 29.7 pA and 114.4 pA and 172.7 pA. Moreover, the “activation of whole-endolysosome ITPC in TPC1/2 DKO HAP1 cells (in words)” value in assay [5] is on record as “not TPC1/2 DKO”.

In general, EC50 refers to the concentration giving half of the maximal effect. A high value points to weaker potency.

For the origin of these results see article PMC6905855, “Agonist-specific voltage-dependent gating of lysosomal two-pore Na^+ channels” (eLife, 2019).
